In brackets after ≈: the same amount, converted by molar mass.
Columns and labels:
[1] = molecular target: T1, PBP2 from Neisseria gonorrhoeae (FA19) (Neisseria gonorrhoeae, UniProt P08149); assay: Bocillin-FL fluorescence polarization competition binding, N. gonorrhoeae PBP2; conditions: fluorescence polarization competition binding assay using Bocillin-FL, read-out: N. gonorrhoeae PBP2 Potency
T1 construct: made in house
Text: To determine the ability of boronic acid-based test PBP inhibitors to bind Penicillin Binding Proteins (PBPs), Bocillin-FL (fluorescently-labeled penicillin V; ThermoFisher Scientific) was used in a fluorescence polarization (FP) competition binding assay to assess inhibitor binding to PBP3 from Escherichia coli (K-12), PBP3 from Pseudomonas aeruginosa (PAO1), PBP1a and PBP3 from Acinetobacter baumannii (ATCC 19606), and PBP2 from Neisseria gonorrhoeae (FA19). PBPs were cloned and purified as described previously (E. coli PBP3, King, D. T, et al., ACS Infectious Diseases 2015, 1, 175-184; P. aeruginosa PBP3, Han et. al., PNAS 2010, 107 (51), 22002-22007; A. baumannii PBPs, Penwell et. al., Antimicrob. Agents Chemother. 2015, 59 (3), 1680-1689; N. gonorrhoeae PBP2, Singh et. al., J. Biol. Chem. 2019, 294 (38), 14020-14032). To establish assay conditions for competition binding, enzyme titration/saturation binding experiments were initially performed. Bocillin-FL was prepared at 0.2 μM in a buffer comprised of 50 mM Hepes (pH 8.0), 300 mM NaCl and 10% (v/v) glycerol for reactions with E. coli, P. aeruginosa and N. gonorrhoeae PBPs, and 25 mM Tris (pH 8.0), 200 mM NaCl, 10% (v/v) glycerol and 0.005% (v/v) Tween 20 for reactions with A. baumannii PBPs. Saturation binding was performed by mixing 40 μl of PBP solutions ranging in concentrations from 0-24 μM with 40 μl of the 0.2 μM Bocillin-FL solution, in individual wells of a black 384-well microplate. FP was measured immediately upon mixing (Excitation, 490 nm; Emission, 520 nm; g-factor, 0.96), using a Cytation3 (BioTek) microplate reader and measured continuously for up to 120 minutes. […] The competition binding assay (80 μl final volume) was validated using beta-lactams and PBPs at final concentrations of: 1.5 μM for E. coli PBP3; 0.75 μM for P. aeruginosa PBP3; 1 μM for A. baumannii PBP1a; 0.2 μM for A. baumannii PBP3; and 0.25 μM for N. gonorrhoeae PBP2. Bocillin-FL was at 0.1 μM (0.05 μM with A. baumannii PBP1a) and beta-lactam concentrations ranged from 0-1,000 μM. E. coli PBP3 was incubated with increasing concentrations of ampicillin in a black 384-well microplate (Corning) for 30 minutes. P. aeruginosa PBP3 was incubated for 15 minutes with aztreonam, whereas A. baumannii PBP1a and PBP3 were incubated for 15 minutes with meropenem, and then Bocillin-FL was added followed immediately by the FP measurement for up to 60 minutes. […] The beta-lactam potency was reported as the concentration of beta-lactam required to reduce the amount of PBP bound-Bocillin-FL by 50% (EC50). […] Binding assays for boronic acid PBP inhibitors were performed in an identical fashion for the respective PBPs.

E. coli ATCC 25922 = assay: microbe, parasite or virus in culture; assay type: cell-based; conditions: Escherichia coli, ATCC25922, read-out: MIC E. coli 25922
E. coli 901C = assay: microbe, parasite or virus in culture; assay type: cell-based; conditions: Escherichia coli, read-out: MIC E. coli 901C
K. pneumoniae SI-117 = assay: microbe, parasite or virus in culture; assay type: cell-based; conditions: Klebsiella pneumoniae, SI117, read-out: MIC K. pneumoniae SI-117
A. baumannii ATCC 19606 = assay: microbe, parasite or virus in culture; assay type: cell-based; conditions: Acinetobacter baumannii, ATCC19606, read-out: MIC, A. baumannii ATCC 19606
P. aeruginosa ATCC 35151 = assay: microbe, parasite or virus in culture; assay type: cell-based; conditions: Pseudomonas aeruginosa, ATCC35151, read-out: MIC P. aeruginosa ATCC 35151
[2] = test system: P. aeruginosa (ΔmexAB-oprM); assay: Broth microdilution MIC in CAMHB; assay type: cell-based; conditions: Pseudomonas aeruginosa; read-out: MIC P. aeruginosa ΔmexAB-oprM
N. gonorrhoeae WHO G = assay: Liquid broth MIC in Fastidious broth; conditions: Neisseria gonorrhoeae, read-out: Minimum Inhibitory Concentration (MIC), N. gonorrhoeae WHO G
N. gonorrhoeae WHO L = assay: Liquid broth MIC in Fastidious broth; conditions: Neisseria gonorrhoeae, read-out: Minimum Inhibitory Concentration (MIC), N. gonorrhoeae WHO L
N. gonorrhoeae WHO K = assay: Liquid broth MIC in Fastidious broth; conditions: Neisseria gonorrhoeae, read-out: Minimum Inhibitory Concentration (MIC), N. gonorrhoeae WHO K
N. gonorrhoeae WHO X = assay: Liquid broth MIC in Fastidious broth; conditions: Neisseria gonorrhoeae, read-out: Minimum Inhibitory Concentration (MIC), N. gonorrhoeae WHO X
N. gonorrhoeae WHO Q = assay: Liquid broth MIC in Fastidious broth; conditions: Neisseria gonorrhoeae, read-out: Minimum Inhibitory Concentration (MIC), N. gonorrhoeae WHO Q
N. gonorrhoeae CDC-0197 = assay: Liquid broth MIC in Fastidious broth; conditions: Neisseria gonorrhoeae, CDC0197, read-out: Minimum Inhibitory Concentration (MIC), N. gonorrhoeae CDC-0197

T1 sequence (P08149 whole entry): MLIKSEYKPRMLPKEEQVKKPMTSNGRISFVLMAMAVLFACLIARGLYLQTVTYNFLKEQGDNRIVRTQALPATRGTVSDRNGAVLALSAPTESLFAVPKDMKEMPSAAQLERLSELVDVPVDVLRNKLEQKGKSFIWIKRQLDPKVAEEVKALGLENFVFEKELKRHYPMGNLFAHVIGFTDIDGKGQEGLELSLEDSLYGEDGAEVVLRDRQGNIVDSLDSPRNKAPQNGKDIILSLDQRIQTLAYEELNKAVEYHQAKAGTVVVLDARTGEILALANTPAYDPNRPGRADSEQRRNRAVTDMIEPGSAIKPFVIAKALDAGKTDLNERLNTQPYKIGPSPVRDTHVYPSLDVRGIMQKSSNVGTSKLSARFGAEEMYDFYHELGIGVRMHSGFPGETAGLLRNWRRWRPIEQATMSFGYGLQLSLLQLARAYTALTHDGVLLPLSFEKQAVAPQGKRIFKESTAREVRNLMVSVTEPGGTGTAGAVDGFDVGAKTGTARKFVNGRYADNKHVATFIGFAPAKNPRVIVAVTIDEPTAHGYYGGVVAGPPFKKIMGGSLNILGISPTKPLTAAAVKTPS

Row | SMILES | EC50 [1] | MIC (E. coli ATCC 25922) | MIC (E. coli 901C) | MIC (K. pneumoniae SI-117) | MIC (A. baumannii ATCC 19606) | MIC (P. aeruginosa ATCC 35151) | MIC [2] | MIC (N. gonorrhoeae WHO G) | MIC (N. gonorrhoeae WHO L) | MIC (N. gonorrhoeae WHO K) | MIC (N. gonorrhoeae WHO X) | MIC (N. gonorrhoeae WHO Q) | MIC (N. gonorrhoeae CDC-0197)
1 | CS(=O)(=O)N1CCN(C(=O)N[C@@H](C(=O)N[C@H]2Cc3cccc(C(=O)O)c3OB2O)c2cc(F)c(P(=O)(O)O)c(F)c2)C1=O (single isomer, unassigned) [Example 18] | < 10 µM | 32 to 64 µg/mL (≈ 49.5 to 99 µM) | < 1 µg/mL | > 128 µg/mL | 32 to 64 µg/mL (≈ 49.5 to 99 µM) | 2 to 4 µg/mL (≈ 3.09 to 6.19 µM) | 32 to 64 µg/mL (≈ 49.5 to 99 µM) | < 1 µg/mL | < 1 µg/mL | < 1 µg/mL | < 1 µg/mL | < 1 µg/mL | < 1 µg/mL
2 | CCN1CCN(C(=O)N[C@@H](C(=O)N[C@H]2Cc3cccc(C(=O)O)c3OB2O)c2ccc(P(C)(=O)O)cc2)C(=O)C1=O (single isomer, unassigned) [Example 47] | < 10 µM | 8 to 16 µg/mL (≈ 13.6 to 27.3 µM) | < 1 µg/mL | > 128 µg/mL | 32 to 64 µg/mL (≈ 54.6 to 109 µM) | < 1 µg/mL | 8 to 16 µg/mL (≈ 13.6 to 27.3 µM) | < 1 µg/mL | 4 to 8 µg/mL (≈ 6.82 to 13.6 µM) | 4 to 8 µg/mL (≈ 6.82 to 13.6 µM) | 4 to 8 µg/mL (≈ 6.82 to 13.6 µM) | 1 to 2 µg/mL (≈ 1.71 to 3.41 µM) | 1 to 2 µg/mL (≈ 1.71 to 3.41 µM)
3 | CS(=O)(=O)N1CCN(C(=O)N[C@@H](C(=O)N[C@H]2Cc3ccc(F)c(C(=O)O)c3OB2O)c2ccc(P(=O)(O)O)c(F)c2)C1=O (single isomer, unassigned) [Example 19] | < 10 µM | > 128 µg/mL | < 1 µg/mL | > 128 µg/mL | > 128 µg/mL | 2 to 4 µg/mL (≈ 3.09 to 6.19 µM) | 32 to 64 µg/mL (≈ 49.5 to 99 µM) | < 1 µg/mL | < 1 µg/mL | < 1 µg/mL | < 1 µg/mL | < 1 µg/mL | < 1 µg/mL
4 | O=C(N[C@@H](C(=O)N[C@H]1Cc2cccc(C(=O)O)c2OB1O)c1ccc(P(=O)(O)O)cc1)c1ccc(C(F)(F)F)cn1 (single isomer, unassigned) [Example 193] | < 10 µM | 32 to 64 µg/mL (≈ 53.9 to 108 µM) | < 1 µg/mL | > 128 µg/mL | > 128 µg/mL | 2 to 4 µg/mL (≈ 3.37 to 6.74 µM) | 32 to 64 µg/mL (≈ 53.9 to 108 µM) | < 1 µg/mL | 4 to 8 µg/mL (≈ 6.74 to 13.5 µM) | 1 to 2 µg/mL (≈ 1.69 to 3.37 µM) | 4 to 8 µg/mL (≈ 6.74 to 13.5 µM) | 1 to 2 µg/mL (≈ 1.69 to 3.37 µM) | < 1 µg/mL
5 | O=C(O)c1cccc2c1OB(O)[C@@H](NC(=O)C(NC(=O)c1ncccc1Cl)c1ccc(P(=O)(O)O)cc1)C2 (stereo partly drawn) [Example 183, (3R)-3-(2-(3-chloropicolinamido)-2-(4-phosphonophenyl)acetamido)-2-hydroxy-3,4-dihydro-2H-benzo[e][1,2]oxaborinine-8-carboxylic acid] | < 10 µM | > 128 µg/mL | 8 to 16 µg/mL (≈ 14.3 to 28.6 µM) | > 128 µg/mL | > 128 µg/mL | 8 to 16 µg/mL (≈ 14.3 to 28.6 µM) | > 128 µg/mL | 4 to 8 µg/mL (≈ 7.15 to 14.3 µM) | 16 to 32 µg/mL (≈ 28.6 to 57.2 µM) | 16 to 32 µg/mL (≈ 28.6 to 57.2 µM) | 16 to 32 µg/mL (≈ 28.6 to 57.2 µM) | 16 to 32 µg/mL (≈ 28.6 to 57.2 µM) | 16 to 32 µg/mL (≈ 28.6 to 57.2 µM)
6 | O=C(O)c1c(F)ccc2c1OB(O)[C@@H](NC(=O)C(NC(=O)N1CCN(Cc3ccc(O)c(O)c3Cl)C(=O)C1=O)c1ccc(P(=O)(O)O)c(F)c1)C2 (stereo partly drawn) [Example 23, (3R)-3-(2-(4-(2-chloro-3,4-dihydroxybenzyl)-2,3-dioxopiperazine-1-carboxamido)-2-(3-fluoro-4-phosphonophenyl)acetamido)-7-fluoro-2-hydroxy-3,4-dihydro-2H-benzo[e][1,2]oxaborinine-8-carboxylic acid] | < 10 µM |  |  |  |  |  |  | < 1 µg/mL | 4 to 8 µg/mL (≈ 5.31 to 10.6 µM) | < 1 µg/mL | 1 to 2 µg/mL (≈ 1.33 to 2.66 µM) | < 1 µg/mL | < 1 µg/mL
7 | O=C(O)c1cccc2c1OB(O)[C@@H](NC(=O)C(NC(=O)N1CCN(Cc3ccc(O)c(O)c3Cl)C(=O)C1=O)c1ccc(P(=O)(O)O)cc1)C2 (stereo partly drawn) [Example 24, (3R)-3-(2-(4-(2-chloro-3,4-dihydroxybenzyl)-2,3-dioxopiperazine-1-carboxamido)-2-(4-phosphonophenyl)acetamido)-2-hydroxy-3,4-dihydro-2H-benzo[e][1,2]oxaborinine-8-carboxylic acid] | < 10 µM |  |  |  |  |  |  | < 1 µg/mL | 4 to 8 µg/mL (≈ 5.58 to 11.2 µM) | 4 to 8 µg/mL (≈ 5.58 to 11.2 µM) | 16 to 32 µg/mL (≈ 22.3 to 44.6 µM) | 1 to 2 µg/mL (≈ 1.4 to 2.79 µM) | 1 to 2 µg/mL (≈ 1.4 to 2.79 µM)
8 | O=C(O)c1c(F)ccc2c1OB(O)[C@@H](NC(=O)C(NC(=O)N1CCN(Cc3cc(F)c(O)c(O)c3Cl)C(=O)C1=O)c1ccc(P(=O)(O)O)cc1)C2 (stereo partly drawn) [Example 45, (3R)-3-(2-(4-(2-chloro-5-fluoro-3,4-dihydroxybenzyl)-2,3-dioxopiperazine-1-carboxamido)-2-(4-phosphonophenyl)acetamido)-7-fluoro-2-hydroxy-3,4-dihydro-2H-benzo[e][1,2]oxaborinine-8-carboxylic acid] | < 10 µM |  |  |  |  |  |  | < 1 µg/mL | 4 to 8 µg/mL (≈ 5.31 to 10.6 µM) | 1 to 2 µg/mL (≈ 1.33 to 2.66 µM) | 4 to 8 µg/mL (≈ 5.31 to 10.6 µM) | 1 to 2 µg/mL (≈ 1.33 to 2.66 µM) | 1 to 2 µg/mL (≈ 1.33 to 2.66 µM)
9 | O=C(O)c1c(F)ccc2c1OB(O)[C@@H](NC(=O)C(NC(=O)N1CCN(Cc3ccc(O)c(O)c3Cl)C1=O)c1ccc(P(=O)(O)O)cc1)C2 (stereo partly drawn) [Example 46, (3R)-3-(2-(3-(2-chloro-3,4-dihydroxybenzyl)-2-oxoimidazolidine-1-carboxamido)-2-(4-phosphonophenyl)acetamido)-7-fluoro-2-hydroxy-3,4-dihydro-2H-benzo[e][1,2]oxaborinine-8-carboxylic acid] | < 10 µM |  |  |  |  |  |  | < 1 µg/mL | 4 to 8 µg/mL (≈ 5.66 to 11.3 µM) | 1 to 2 µg/mL (≈ 1.41 to 2.83 µM) | 1 to 2 µg/mL (≈ 1.41 to 2.83 µM) | < 1 µg/mL | < 1 µg/mL

From patent US20240270762A1, “PENICILLIN-BINDING PROTEIN INHIBITORS” (priority 2021, published 2024)
